The record followed here is US20230192705A1, “SHP2 INHIBITORS, COMPOSITIONS AND USES THEREOF” (Betta Pharmaceuticals Co., Ltd, priority 2020, published 2023).

For the assay, the target named is T1, SHP2 (Homo sapiens, UniProt Q06124).
T1 sequence (Q06124 1-593): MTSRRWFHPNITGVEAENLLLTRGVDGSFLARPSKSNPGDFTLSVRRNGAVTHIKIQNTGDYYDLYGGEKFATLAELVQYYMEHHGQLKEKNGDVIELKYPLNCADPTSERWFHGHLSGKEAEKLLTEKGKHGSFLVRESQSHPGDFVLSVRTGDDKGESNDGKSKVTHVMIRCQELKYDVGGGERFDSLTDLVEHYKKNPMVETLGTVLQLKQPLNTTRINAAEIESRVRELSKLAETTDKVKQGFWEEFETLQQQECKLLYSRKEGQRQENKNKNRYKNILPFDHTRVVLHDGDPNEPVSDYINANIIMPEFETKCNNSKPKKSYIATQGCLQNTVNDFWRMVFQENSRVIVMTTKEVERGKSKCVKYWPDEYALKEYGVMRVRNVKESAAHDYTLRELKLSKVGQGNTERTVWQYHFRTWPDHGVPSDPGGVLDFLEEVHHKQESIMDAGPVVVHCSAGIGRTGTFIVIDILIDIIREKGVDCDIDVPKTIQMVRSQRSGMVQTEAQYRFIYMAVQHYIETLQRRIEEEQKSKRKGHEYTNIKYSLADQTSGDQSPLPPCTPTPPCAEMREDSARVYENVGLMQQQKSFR
As to the kind of experiment: SHP2 allosteric inhibitor enzyme activity assay (DiFMUP fluorescence). Particulars: class symbols. Format: biochemical. An outline of the steps:
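SHP2 activated by 0.5 μM IRS1_pY1172(dPEG8)pY1222 peptide, 0.2 ng enzyme per well, 1 h at room temperature with compound (1 μM top, 3-fold series), then DiFMUP substrate 1 h. Buffer: 60 mM HEPES, 75 mM NaCl, 75 mM KCl, 0.05% BRIJ-35, 1 mM EDTA, 5 mM DTT. Fluorescence ex 340/em 450 nm; IC50 by variable-slope fit.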
Usually IC50 stands for the midpoint of a concentration-inhibition curve. Read a low IC50 as greater potency in that assay. `C[C@@H]1OCC2(CCN(c3nc4[nH]nc(C5(c6ccccc6)CC5)c4c(=O)n3C)CC2)[C@@H]1N` [Example 272, 6-((3S,4S)-4-amino-3-methyl-2-oxa-8-azaspiro[4.5]decan-8-yl)-5-methyl-3-(1-phenylcyclopropyl)-1,5-dihydro-4H-pyrazolo[3,4-d]pyrimidin-4-one] showed an IC50 of 0.02 to 0.06 µM.

The compound `C[C@@H]1OCC2(CCN(c3nc4[nH]nc(C5(c6ccncn6)CC5)c4c(=O)[nH]3)CC2)[C@@H]1N` [Example 273, 6-((3S,4S)-4-amino-3-methyl-2-oxa-8-azaspiro[4.5]decan-8-yl)-3-(1-(pyrimidin-4-yl)cyclopropyl)-1,5-dihydro-4H-pyrazolo[3,4-d]pyrimidin-4-one] had an IC50 of 0.02 to 0.06 µM.

As for `C[C@@H]1OCC2(CCN(c3nc4[nH]nc(C5(c6ccncc6)CC5)c4c(=O)[nH]3)CC2)[C@@H]1N` [Example 274, 6-((3S,4S)-4-amino-3-methyl-2-oxa-8-azaspiro[4.5]decan-8-yl)-3-(1-(pyridin-4-yl)cyclopropyl)-1,5-dihydro-4H-pyrazolo[3,4-d]pyrimidin-4-one], the IC50 is 0.02 to 0.06 µM.

`C[C@@H]1OCC2(CCN(c3nc4[nH]nc(C5(c6cccnc6)CC5)c4c(=O)[nH]3)CC2)[C@@H]1N` [Example 275, 6-((3S,4S)-4-amino-3-methyl-2-oxa-8-azaspiro[4.5]decan-8-yl)-3-(1-(pyridin-3-yl)cyclopropyl)-1,5-dihydro-4H-pyrazolo[3,4-d]pyrimidin-4-one] yielded an IC50 of 0.02 to 0.06 µM.

On to `C[C@@H]1OCC2(CCN(c3nc4[nH]nc(C5(c6ccccn6)CC5)c4c(=O)[nH]3)CC2)[C@@H]1N` [Example 276, 6-((3S,4S)-4-amino-3-methyl-2-oxa-8-azaspiro[4.5]decan-8-yl)-3-(1-(pyridin-2-yl)cyclopropyl)-1,5-dihydro-4H-pyrazolo[3,4-d]pyrimidin-4-one], for which the IC50 was 0.02 to 0.06 µM.

As to `C[C@@H]1OCC2(CCN(c3nc4[nH]nc(C5(c6nccs6)CC5)c4c(=O)[nH]3)CC2)[C@@H]1N` [Example 277, 6-((3S,4S)-4-amino-3-methyl-2-oxa-8-azaspiro[4.5]decan-8-yl)-3-(1-(thiazol-2-yl)cyclopropyl)-1,5-dihydro-4H-pyrazolo[3,4-d]pyrimidin-4-one], the concentration for half-maximal inhibition (IC50) is 0.02 to 0.06 µM.

Take `C[C@@H]1OCC2(CCN(c3nc4[nH]nc(C5(c6cccs6)CC5)c4c(=O)[nH]3)CC2)[C@@H]1N` [Example 278, 6-((3S,4S)-4-amino-3-methyl-2-oxa-8-azaspiro[4.5]decan-8-yl)-3-(1-(thiophen-2-yl)cyclopropyl)-1,5-dihydro-4H-pyrazolo[3,4-d]pyrimidin-4-one]: the half-inhibitory concentration (IC50) was in the range of 0.02 to 0.06 µM.

`C[C@@H]1OCC2(CCN(c3nc4[nH]nc(C5(c6ncco6)CC5)c4c(=O)[nH]3)CC2)[C@@H]1N` [Example 279, 6-((3S,4S)-4-amino-3-methyl-2-oxa-8-azaspiro[4.5]decan-8-yl)-3-(1-(oxazol-2-yl)cyclopropyl)-1,5-dihydro-4H-pyrazolo[3,4-d]pyrimidin-4-one] showed a concentration for half-maximal inhibition (IC50) of 0.02 to 0.06 µM.

`C[C@@H]1OCC2(CCN(c3nc4[nH]nc(C5(c6nncs6)CC5)c4c(=O)[nH]3)CC2)[C@@H]1N` [Example 280, 3-(1-(1,3,4-thiadiazol-2-yl)cyclopropyl)-6-((3S,4S)-4-amino-3-methyl-2-oxa-8-azaspiro[4.5]decan-8-yl)-1,5-dihydro-4H-pyrazolo[3,4-d]pyrimidin-4-one] gave a concentration for half-maximal inhibition (IC50) above 0.06 µM.

Compound `N[C@@H]1COCC12CCN(c1nc3[nH]nc(C4(c5nc6ccccc6o5)CC4)c3c(=O)[nH]1)CC2` [Example 282, (S)-6-(4-amino-2-oxa-8-azaspiro[4.5]decan-8-yl)-3-(1-(benzo[d]oxazol-2-yl)cyclopropyl)-1,5-dihydro-4H-pyrazolo[3,4-d]pyrimidin-4-one] came in with an IC50 of 0.02 to 0.06 µM.

In the case of `N[C@@H]1COCC12CCN(c1nc3[nH]nc(C4(c5nc6ccccc6[nH]5)CC4)c3c(=O)[nH]1)CC2` [Example 283, (S)-3-(1-(1H-benzo[d]imidazol-2-yl)cyclopropyl)-6-(4-amino-2-oxa-8-azaspiro[4.5]decan-8-yl)-1,5-dihydro-4H-pyrazolo[3,4-d]pyrimidin-4-one], the IC50 was above 0.06 µM.

As to `C[C@@H]1OCC2(CCN(c3nc4[nH]nc(C5(c6nc7ccccc7o6)CC5)c4c(=O)[nH]3)CC2)[C@@H]1N` [Example 284, 6-((3S,4S)-4-amino-3-methyl-2-oxa-8-azaspiro[4.5]decan-8-yl)-3-(1-(benzo[d]oxazol-2-yl)cyclopropyl)-1,5-dihydro-4H-pyrazolo[3,4-d]pyrimidin-4-one], the 50% inhibitory concentration (IC50) was in the range of 0.02 to 0.06 µM.

Take `C[C@@H]1OCC2(CCN(c3nc4[nH]nc(C5(c6cc7ccccc7[nH]6)CC5)c4c(=O)[nH]3)CC2)[C@@H]1N` [Example 285, 3-(1-(1H-indol-2-yl)cyclopropyl)-6-((3S,4S)-4-amino-3-methyl-2-oxa-8-azaspiro[4.5]decan-8-yl)-1,5-dihydro-4H-pyrazolo[3,4-d]pyrimidin-4-one]: the IC50 is above 0.06 µM.

In turn, `C[C@@H]1OCC2(CCN(c3nc4[nH]nc(C5(c6ccc7c(c6)OCO7)CC5)c4c(=O)[nH]3)CC2)[C@@H]1N` [Example 286, 6-((3S,4S)-4-amino-3-methyl-2-oxa-8-azaspiro[4.5]decan-8-yl)-3-(1-(benzo[d][1,3]dioxol-5-yl)cyclopropyl)-1,5-dihydro-4H-pyrazolo[3,4-d]pyrimidin-4-one] gave an IC50 of 0.02 to 0.06 µM.

`C[C@@H]1OCC2(CCN(c3nc4[nH]nc(C5(c6ccc7ocnc7c6)CC5)c4c(=O)[nH]3)CC2)[C@@H]1N` [Example 287, 6-((3S,4S)-4-amino-3-methyl-2-oxa-8-azaspiro[4.5]decan-8-yl)-3-(1-(benzo[d]oxazol-5-yl)cyclopropyl)-1,5-dihydro-4H-pyrazolo[3,4-d]pyrimidin-4-one] displayed an IC50 of 0.02 to 0.06 µM.

`COc1cc(F)cc(C2(c3n[nH]c4nc(N5CCC6(CC5)CO[C@@H](C)[C@H]6N)[nH]c(=O)c34)CC2)c1` [Example 288, 6-((3S,4S)-4-amino-3-methyl-2-oxa-8-azaspiro[4.5]decan-8-yl)-3-(1-(3-fluoro-5-methoxyphenyl)cyclopropyl)-1,5-dihydro-4H-pyrazolo[3,4-d]pyrimidin-4-one]: the IC50 is above 0.06 µM.

The compound `COc1cc(C2(c3n[nH]c4nc(N5CCC6(CC5)CO[C@@H](C)[C@H]6N)[nH]c(=O)c34)CC2)ccc1F` [Example 289, 6-((3S,4S)-4-amino-3-methyl-2-oxa-8-azaspiro[4.5]decan-8-yl)-3-(1-(4-fluoro-3-methoxyphenyl)cyclopropyl)-1,5-dihydro-4H-pyrazolo[3,4-d]pyrimidin-4-one] showed an IC50 above 0.06 µM.

Consider `C[C@@H]1OCC2(CCN(c3nc4[nH]nc(C5(c6cccc(C#N)c6)CC5)c4c(=O)[nH]3)CC2)[C@@H]1N` [Example 290, 3-(1-(6-((3S,4S)-4-amino-3-methyl-2-oxa-8-azaspiro[4.5]decan-8-yl)-4-oxo-4,5-dihydro-1H-pyrazolo[3,4-d]pyrimidin-3-yl)cyclopropyl)benzonitrile], for which the IC50 was 0.02 to 0.06 µM.

`C[C@@H]1OCC2(CCN(c3nc4[nH]nc(C5(c6ccnc(N)c6Cl)CC5)c4c(=O)[nH]3)CC2)[C@@H]1N` [Example 291, 3-(1-(2-amino-3-chloropyridin-4-yl)cyclopropyl)-6-((3S,4S)-4-amino-3-methyl-2-oxa-8-azaspiro[4.5]decan-8-yl)-1,5-dihydro-4H-pyrazolo[3,4-d]pyrimidin-4-one] yielded a half-inhibitory concentration (IC50) of 0.02 to 0.06 µM.

The compound `C[C@@H]1OCC2(CCN(c3nc4[nH]nc(C5(c6ccc(F)cc6)CC5)c4c(=O)[nH]3)CC2)[C@@H]1N` [Example 292, 6-((3S,4S)-4-amino-3-methyl-2-oxa-8-azaspiro[4.5]decan-8-yl)-3-(1-(4-fluorophenyl)cyclopropyl)-1,5-dihydro-4H-pyrazolo[3,4-d]pyrimidin-4-one] yielded an IC50 of 0.02 to 0.06 µM.

Compound `C[C@@H]1OCC2(CCN(c3nc4[nH]nc(C5(c6cccc(F)c6)CC5)c4c(=O)[nH]3)CC2)[C@@H]1N` [Example 293, 6-((3S,4S)-4-amino-3-methyl-2-oxa-8-azaspiro[4.5]decan-8-yl)-3-(1-(3-fluorophenyl)cyclopropyl)-1,5-dihydro-4H-pyrazolo[3,4-d]pyrimidin-4-one] yielded an IC50 of 0.02 to 0.06 µM.

For the compound `C[C@@H]1OCC2(CCN(c3nc4[nH]nc(C5(c6ccccc6F)CC5)c4c(=O)[nH]3)CC2)[C@@H]1N` [Example 294, 6-((3S,4S)-4-amino-3-methyl-2-oxa-8-azaspiro[4.5]decan-8-yl)-3-(1-(2-fluorophenyl)cyclopropyl)-1,5-dihydro-4H-pyrazolo[3,4-d]pyrimidin-4-one], the IC50 was 0.02 to 0.06 µM.

For `C[C@@H]1OCC2(CCN(c3nc4[nH]nc(C5(c6ccc(F)c(F)c6)CC5)c4c(=O)[nH]3)CC2)[C@@H]1N` [Example 295, 6-((3S,4S)-4-amino-3-methyl-2-oxa-8-azaspiro[4.5]decan-8-yl)-3-(1-(3,4-difluorophenyl)cyclopropyl)-1,5-dihydro-4H-pyrazolo[3,4-d]pyrimidin-4-one], the IC50 is 0.02 to 0.06 µM.
